Test results published in patent publication US20100056513A1, “STEREOSPECIFICALLY SUBSTITUTED BENZO[1,3]DIOXOLYL DERIVATIVES” (priority 2005, published 2010).
Read-outs that look alike come from different tables or passages of the source. One block for each compound: values may come before it.

Assays:
NMRI mice = assay: CP 55,940-induced hypothermia in NMRI mice; assay type: in vivo; conditions: po, CP 55,940 0.3 mg/kg i.v.; for Hypothermia in NMRI mice ID50 or minimum effective dose (MED), result in words: highest dose 30 mg/kg
Description: Effect of CB1 Receptor Antagonist/Inverse Agonist on CP 55,940-Induced Hypothermia in NMRI Mice
Male NMRI mice were used in this study and were obtained from Research Consulting Company Ltd (RCC) of Füllinsdorf (Switzerland). Mice, weighing 30-31 g were used in this study. Ambient temperature is approximately 20-21° C. and relative humidity 55-65%. A 12 hours light-dark cycle is maintained in the rooms with all tests being performed during the light phase. Access to tap water and food are ad libitum.
All measurements were made between 12:00 am and 5:00 pm. Mice were brought in this environment and habituated for at least two hours before the start of the experiment. They had always free access to food and water. For each dose, 8 mice were used. Rectal body temperature measurements were recorded by mean of a rectal probe (RET2 of Physitemp) and digital thermometer (Digi-sense n°8528-20 of Cole Parmer, Chicago USA). The probe was inserted about 3.5 cm in each mouse.
The body temperature was taken 15 min before administration of either Vehicle or CB1 receptor antagonist/inverse agonist. 30 or 90 min after i.p. or p.o. administration of this compound, respectively, rectal body temperature was recorded in order to evaluate any influence of the compound itself. The CB receptor agonist CP 55,940 (0.3 mg/kg) was immediately administered intravenously, then 20 min after i.v. administration of CP 55940, body temperature was again measured.

[1] = target: T1, human cannabis CB1 receptor (Homo sapiens, UniProt P21554); assay: CB1 receptor affinity, [3H]-CP-55,940 radioligand binding on HEK cell membranes
T1 construct: expressed in transfected cells; host or cells: human embryonic kidney (HEK) cells, Semliki Forest Virus system, membrane preparation
Description: The affinity of the compounds of the invention for cannabinoid CB1 receptors was determined using membrane preparations of human embryonic kidney (HEK) cells in which the human cannabis CB1 receptor is transiently transfected using the Semliki Forest Virus system in conjunction with [3H]-CP-55,940 as radioligand. After incubation of a freshly prepared cell membrane preparation with the [3H]-ligand, with or without addition of compounds of the invention, separation of bound and free ligand was performed by filtration over glassfiber filters. Radioactivity on the filter was measured by liquid scintillation counting.
The data is determined with the experimental conditions described in Devane et. al. Mol. Pharmacol. 34 (1988) 605-613.

[2] = tested on: obese Spague-Dawley rats fed a high fat diet; assay: Body weight reduction in obese rats fed a high fat diet; assay type: in vivo; conditions: over 17 days
From the text: In vivo efficacy in the hypothermia model translated into efficacy in a disease related model, namely body weight reduction in obese Spague-Dawley rats fed a high fat diet (in analogy to Vickers et al. Psychopharmacology 2003, 167, 103-11 for obese fa/fa rats).

[3] = doses of 10 and 20 mg daily; cited from earlier work
[4] = Table 2, read-out: CB1 receptor affinity IC50
[5] = Table 1, read-out: IC50 (affinity for the CB1 receptor)

T1 sequence (P21554 whole entry): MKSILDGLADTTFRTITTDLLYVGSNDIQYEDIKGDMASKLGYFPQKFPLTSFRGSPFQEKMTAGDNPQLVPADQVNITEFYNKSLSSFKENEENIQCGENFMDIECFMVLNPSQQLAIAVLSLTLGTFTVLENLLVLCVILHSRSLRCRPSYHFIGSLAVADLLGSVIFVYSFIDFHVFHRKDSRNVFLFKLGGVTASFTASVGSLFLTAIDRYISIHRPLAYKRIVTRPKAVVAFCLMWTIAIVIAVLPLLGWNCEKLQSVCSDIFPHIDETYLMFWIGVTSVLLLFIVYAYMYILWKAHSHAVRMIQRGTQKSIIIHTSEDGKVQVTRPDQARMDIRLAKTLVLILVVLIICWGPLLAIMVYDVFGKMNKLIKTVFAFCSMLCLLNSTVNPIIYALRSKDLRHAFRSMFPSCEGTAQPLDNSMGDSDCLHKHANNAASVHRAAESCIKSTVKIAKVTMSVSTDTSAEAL

SMILES: O=C(c1cc2c(cc1F)OC(c1ccc(Cl)cc1)(c1ccc(Cl)cc1)O2)N1CCOCC1 [Meso-[2,2-Bis-(4-chloro-phenyl)-6-fluoro-benzo[1,3]dioxol-5-yl]-morpholin-4-yl-methanone, reference compound]
- Hypothermia in NMRI mice ID50 or minimum effective dose (MED), result in words (NMRI mice): inactive at 30
- IC50 [1, 4]: 0.026 µM

SMILES: O=C(c1cc2c(cc1F)O[C@](c1ccc(F)cc1)(c1ccc(Cl)cc1Cl)O2)N1CCOCC1 [R-(+)-[2-(2,4-Dichloro-phenyl)-2-(4-fluoro-phenyl)-6-fluoro-benzo[1,3]dioxol-5-yl]-morpholin-4-yl-methanone]
- IC50 [1, 5]: 0.007 µM

SMILES: O=C(c1cc2c(cc1F)O[C@](c1ccccc1F)(c1ccc(Cl)cc1Cl)O2)N1CCOCC1 [R-(+)[2-(2,4-Dichloro-phenyl)-6-fluoro-2-(2-fluoro-phenyl)-benzo[1,3]dioxol-5-yl]-morpholin-4-yl-methanone]
- Hypothermia in NMRI mice ID50 (NMRI mice): ID50: 4.0 mg/kg po
- IC50 [1, 5]: 0.005 µM

SMILES: O=C(c1cc2c(cc1F)O[C@@](c1ccc(Cl)cc1)(c1ccc(Cl)cc1Cl)O2)N1CCOCC1 [S-(+)[2-(4-Chloro-phenyl)-2-(2,4-dichloro-phenyl)-6-fluoro-benzo[1,3]dioxol-5-yl]-morpholin-4-yl-methanone]
- Hypothermia in NMRI mice minimum effective dose (MED) (NMRI mice): MED: 10 mg/kg po
- IC50 [1, 5]: 0.017 µM
- IC50 [1, 4]: 0.017 µM

SMILES: Cc1c(C(=O)NN2CCCCC2)nn(-c2ccc(Cl)cc2Cl)c1-c1ccc(Cl)cc1 [rimonabant, reference compound]
- BW reduction ([2]; once daily 10 mg/kg po): 6.6%
- body weight compared to placebo [3]: significantly reduced body weight

Second part, led by results:

- IC50 [1, 5]: 0.0025 µM
SMILES: O=C(c1cc2c(cc1F)O[C@](c1ccc(Cl)cc1)(c1ccc(Cl)cc1Cl)O2)N1CCOCC1 [R-(−)-[2-(4-Chloro-phenyl)-2-(2,4-dichloro-phenyl)-6-fluoro-benzo[1,3]dioxol-5-yl]-morpholin-4-yl-methanone]
- Hypothermia in NMRI mice ID50 (NMRI mice): ID50: 1.6 mg/kg po
- BW reduction ([2]; once daily 3 mg/kg po): 9.7%

- IC50 [1, 5]: 0.033 µM
SMILES: O=C(c1cc2c(cc1F)O[C@@](c1ccccc1F)(c1ccc(Cl)cc1Cl)O2)N1CCOCC1 [S-(−)-[2-(2,4-dichloro-phenyl)-6-fluoro-2-(2-fluoro-phenyl)-benzo[1,3]dioxol-5-yl]-morpholin-4-yl-methanone]
- Hypothermia in NMRI mice ID50 or minimum effective dose (MED), result in words (NMRI mice): inactive at 30

- IC50 [1, 5]: 0.075 µM
SMILES: O=C(c1cc2c(cc1F)O[C@@](c1ccc(F)cc1)(c1ccc(Cl)cc1Cl)O2)N1CCOCC1 [S-(−)[2-(2,4-Dichloro-phenyl)-2-(4-fluoro-phenyl)-6-fluoro-benzo[1,3]dioxol-5-yl]-morpholin-4-yl-methanone]
